Experimental data reported in the NIST ThermoML archive (doi:10.1021/je200886j).
± gives the expanded uncertainty stated by the source.

Legend:
[1] = 101 kPa, Liquid; for mass density: Pycnometric method
[2] = wn = mass fraction of the nth substance listed; conditions: 101 kPa, Liquid; for mass density: Pycnometric method

CCCCn1cc[n+](C)c1.F[B-](F)(F)F [1-butyl-3-methylimidazolium tetrafluoroborate]
[1]
Conditions	mass density [kg/m3]	viscosity [mPa·s]
298.15 K	1200.6 ± 0.7	93.81 ± 2.3
303.15 K	1197.7 ± 0.7	71.76 ± 1.4
308.15 K	1194.8 ± 0.7	56.41 ± 0.85
313.1 K	1191.5 ± 0.7	45.6 ± 0.72
318.15 K	1188.4 ± 0.7	37.32 ± 0.6

CCCCn1cc[n+](C)c1.F[B-](F)(F)F [1-butyl-3-methylimidazolium tetrafluoroborate] + CN1CCCC1=O
[2], w1 = 1
Conditions	mass density [kg/m3]	viscosity [mPa·s]
298.15 K	1200.6 ± 0.7	93.81 ± 2.3
303.15 K	1197.7 ± 0.7	71.76 ± 1.4
308.15 K	1194.8 ± 0.7	56.41 ± 0.85
313.1 K	1191.5 ± 0.7	45.6 ± 0.72
318.15 K	1188.4 ± 0.7	37.32 ± 0.6

CN1CCCC1=O [N-methylpyrrolidone]
[1]
Conditions	mass density [kg/m3]	viscosity [mPa·s]
298.15 K	1028.3 ± 0.6	1.683 ± 0.026
303.15 K	1024.5 ± 0.6	1.558 ± 0.025
308.15 K	1020.1 ± 0.6	1.47 ± 0.023
313.1 K	1015.8 ± 0.6	1.337 ± 0.021
318.15 K	1011.7 ± 0.6	1.248 ± 0.02

CN1CCCC1=O [N-methylpyrrolidone] + CCCCn1cc[n+](C)c1.F[B-](F)(F)F
[2]
Conditions	mass density, 298.15 K [kg/m3]	mass density, 303.15 K [kg/m3]	mass density, 308.15 K [kg/m3]	mass density, 313.1 K [kg/m3]	mass density, 318.15 K [kg/m3]	viscosity, 298.15 K [mPa·s]	viscosity, 303.15 K [mPa·s]	viscosity, 308.15 K [mPa·s]	viscosity, 313.1 K [mPa·s]	viscosity, 318.15 K [mPa·s]
w2 = 0	1028.3 ± 0.6	1024.5 ± 0.6	1020.1 ± 0.6	1015.8 ± 0.6	1011.7 ± 0.6	1.683 ± 0.026	1.558 ± 0.025	1.47 ± 0.023	1.337 ± 0.021	1.248 ± 0.02
w2 = 0.5	1115.6 ± 0.6	1111.8 ± 0.6	1107.9 ± 0.7	1104.1 ± 0.7	1100.3 ± 0.7	8.196 ± 0.22	7.291 ± 0.11	6.382 ± 0.099	5.63 ± 0.087	5.045 ± 0.085
w2 = 0.6999	1148.8 ± 0.7	1145.6 ± 0.7	1142 ± 0.7	1138.3 ± 0.7	1135 ± 0.7	19.33 ± 0.47	16.03 ± 0.25	13.51 ± 0.21	11.63 ± 0.18	10.07 ± 0.15
w2 = 0.8981	1182 ± 0.7	1179.4 ± 0.7	1176.2 ± 0.7	1173.1 ± 0.7	1170.1 ± 0.7	49.46 ± 1.1	39.75 ± 0.63	32.43 ± 0.51	26.93 ± 0.41	22.47 ± 0.31
